One molecule from patent publication US12545677B2, “Compounds useful as factor XIa inhibitors” (JANSSEN PHARMACEUTICA NV, priority 2020, dated 2026) can be followed below.

In series [1] the test system is mitochondrial respiration in HepG2 cells. Kind of series: Seahorse assay, mitochondrial respiration. Conditions: Homo sapiens, 0.3-100 μM, read-out: IC50, mitochondrial respiration as measured by spare respiratory capacity. Type of series: cell-based. The protocol: Biological Example 11: Seahorse Assay
The purpose of this assay was to investigate the effect of the compound of formula (I-A) on mitochondrial respiration in HepG2 cells using the Agilent Seahorse XFe96 analyzer. Cell viability was also determined in HepG2 cells in parallel to the Seahorse assay.
Measurement of mitochondrial respiration in HepG2 Cells: Compound doses were prepared in 100% DMSO and subsequently diluted in assay medium to achieve final solvent concentration of 0.10%. HepG2 cells were plated overnight in a Seahorse plate (Agilent Technologies, Santa Clara, California) at a density of 40,000 cells/well in EMEM containing 10% HI FBS and 1× Pen/Strep cell culture. […] Mitochondrial respiration, quantitated as oxygen consumption rate (OCR), was measured on an Agilent Seahorse XFe96 analyzer using the Seahorse Mito Stress test assay as per the manufacturer's protocol. […]
Data Analyses: Mitochondrial SRC (spare respiratory capacity) was calculated by subtracting the rate of the basal respiration from the rate of the maximal respiration. […] All experiments were run in triplicate and the mean and standard deviations were calculated for each test concentration. […]
IC50 values were determined by nonlinear regression and fitting of the dose response curves to a […] equation with variable slope (Hill coefficient): […]

Series [2] can be described thus: Reactive metabolite study in human liver microsomes (GSH/KCN trapping). Conditions: human liver microsomes 1 mg/mL protein, 10 μM substrate, NADPH, 1 mM GSH, 1 mM KCN, 37° C., 60 min. Type of series: in vitro ADME. The protocol: Reactive Metabolite Study in Human Liver Microsomes
The compound of formula (I-A) was assessed for bioactivation in HLM using GSH and KCN as trapping agents. The compound was incubated in human liver microsomes supplemented with NADPH, KCN and GSH at 37° C. for 60 min. The incubations were conducted with 1 mg/mL protein, 10 μM substrate, 1 mM GSH (non-labeled and labeled at 3:1) and KCN 1 mM (non-labeled and labeled at 3:1) in a total volume of 1 mL. Nefazodone (10 μM) was incubated under the same conditions as a positive control. After incubations, protein precipitation was performed for extraction of the metabolites by mixing with 5× volume of acetonitrile. The proteins were pelleted by centrifugation (3000 rpm, 10 minutes, 4° C.) and the supernatants were transferred into clean test tubes and evaporated to dryness under a gentle stream of nitrogen. The resulting residues were reconstituted in 300 μL of solvent mixture of water:acetonitrile (8:2 v/v) containing 0.1% formic acid prior to filtration using 0.45 μm nylon filter at 10,000×g at room temperature for 3 minutes. The filtrate was transferred to a 96-well plate for liquid chromatography/tandem mass spectrometric (LC-MS/MS) analysis.
LC-MS/MS analysis: Agilent 1260 Infinity UHPLC was coupled to a Bruker Q-TOF. The mass spectrometers were operated in a positive electrospray ionization mode. […]

The target of the next series is T1, CYP3A4 (Homo sapiens, UniProt P08684).
T1 construct: Frozen human liver microsomes (HLM) were thawed at 37° C; from tissue; host or cells: human liver microsomes
Put plainly: Assessment of TDI potential using the IC50 shift method. Type of series: in vitro ADME. Conditions: CYP3A4 (testosterone). The protocol: Assessment of TDI Potential Using the IC50 Shift Method
To establish the potential for TDI of a particular P450 isozyme, the test compound is preincubated over a concentration range (typically 0.04 to 10 μM) with HLMs in the presence of cofactor NADPH for 30 minutes. After pre-incubation, a probe substrate known to be specifically metabolized to a defined metabolite by the isoform under investigation is then added at fixed concentration. Following a pre-defined incubation period (e.g. 10 minutes for the CYP3A4 testosterone assay), the reaction is terminated by addition of a suitable organic solvent (typically, acetonitrile) containing an internal standard. The samples are centrifuged prior to analysis by LC-MS/MS analysis and IC50 TDI value is calculated using curve fitting. This is compared to the IC50 for reversible inhibition, obtained when the pre-incubation step is performed in the absence of […] (IC50 Rev). A leftwards shift in the IC50 (i.e. increased inhibition) upon pre-incubation indicates the potential for TDI of that isozyme. The IC50 shift value is calculated as the ratio of IC50 Rev/IC50 TDI.
The assay was performed on a fully automated Tecan robotic system. Sample analysis was performed via LC-MS/MSMS using stable-labelled internal standard of the probe substrate metabolite.

Where two headings read alike, the source gives them in different places.

T1 sequence (P08684 whole entry): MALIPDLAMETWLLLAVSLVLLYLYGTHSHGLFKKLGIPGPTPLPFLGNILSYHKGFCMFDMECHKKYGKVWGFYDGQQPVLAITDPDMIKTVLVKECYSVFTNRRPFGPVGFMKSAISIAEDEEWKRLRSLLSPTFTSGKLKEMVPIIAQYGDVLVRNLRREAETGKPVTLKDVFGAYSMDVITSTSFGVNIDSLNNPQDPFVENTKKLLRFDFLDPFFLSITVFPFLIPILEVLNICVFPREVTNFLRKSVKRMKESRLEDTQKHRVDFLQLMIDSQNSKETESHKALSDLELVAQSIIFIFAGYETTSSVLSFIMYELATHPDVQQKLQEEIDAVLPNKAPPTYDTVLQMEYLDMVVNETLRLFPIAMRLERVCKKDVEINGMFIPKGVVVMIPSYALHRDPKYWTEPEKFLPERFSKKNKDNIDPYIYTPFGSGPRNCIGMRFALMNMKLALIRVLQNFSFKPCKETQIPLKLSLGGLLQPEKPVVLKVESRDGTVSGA

Consider `O=C1C=C(c2c(-n3cnnn3)ccc(Cl)c2F)C[C@H]2CC[C@@H](c3ncc(-c4ccnc(CO)c4F)[nH]3)N12` [Compound of formula (I-A), (3S,8aR)-7-(3-Chloro-2-fluoro-6-(1H-tetrazol-1-yl)phenyl)-3-(5-(3-fluoro-2-(hydroxymethyl)pyridin-4-yl)-1H-imidazol-2-yl)-2,3,8,8a-tetrahydroindolizin-5(1H)-one], for which the IC50 in series [1] was more than 100 µM; on CYP3A4 (HLM, 30 minutes pre-incubation with NADPH, read-out: IC50 with pre-incubation), 17.5 ± 2.5 µM; on CYP3A4 (HLM, standard solvent conditions, read-out: IC50 without pre-incubation), 12.2 ± 1.4 µM. In addition, in series [2], the “formation of GSH adducts or KCN adducts” value is “did not form GSH adducts or KCN adducts”. The “% maximum concentration, without pre-incubation” value at CYP3A4 (HLM) is recorded as 68.2%. Also, the “% maximum concentration, with pre-incubation” value on CYP3A4 (HLM, 30 minutes pre-incubation) came to 62.8%. The IC50 shift at CYP3A4 (ratio of IC50 Rev/IC50 TDI) came to 0.70.
